Test results reported in ChEMBL document CHEMBL1135076, “Leishmanicidal activity of some aliphatic diamines and amino-alcohols” (Bioorg Med Chem Lett, 2002).

What was measured:
Assay type in all cases: functional, organism-based
[1] = system: Leishmania braziliensis; assay: Tested in vitro for leishmanicidal activity against Leishmania brasiliensis (2903) at the concentration of 100 ug/mL; ++ indicates 80-90% lysis of parasites
[2] = system: Leishmania braziliensis; assay: In vitro for leishmanicidal activity against Leishmania brasiliensis (2903) at the concentration of 10 ug/mL.
[3] = system: Leishmania braziliensis; assay: In vitro for leishmanicidal activity against Leishmania brasiliensis (2903) at the concentration of 50 ug/mL.
[4] = system: Leishmania donovani; assay: Tested in vitro for leishmanicidal activity against Leishmania donovani (PP75) at the concentration of 10 ug/mL
[5] = system: Leishmania donovani; assay: In vitro for leishmanicidal activity against Leishmania donovani (PP75) at the concentration of 100 ug/mL.
[6] = system: Leishmania donovani; assay: In vitro for leishmanicidal activity against Leishmania donovani (PP75) at the concentration of 25 ug/mL.
[7] = system: Leishmania donovani; assay: In vitro for leishmanicidal activity against Leishmania donovani (PP75) at the concentration of 50 ug/mL.
[8] = system: Leishmania amazonensis; assay: In vitro for leishmanicidal activity against Leishmania amazonensis (PH8) at the concentration of 100 ug/mL.
[9] = system: Leishmania amazonensis; assay: In vitro for leishmanicidal activity against Leishmania amazonensis (PH8) at 25 ug/mL; No lysis of parasites.
[10] = system: Leishmania amazonensis; assay: In vitro for leishmanicidal activity against Leishmania amazonensis (PH8) at the concentration of 50 ug/mL.
[11] = system: Leishmania braziliensis; assay: In vitro for leishmanicidal activity against Leishmania brasiliensis (2903) at the concentration of 25 ug/mL.
[12] = system: Leishmania amazonensis; assay: In vitro for leishmanicidal activity against Leishmania amazonensis (PH8) at the concentration of 10 ug/mL.
[13] = system: Leishmania braziliensis; assay: Tested in vitro for leishmanicidal activity against Leishmania brasiliensis (2903) at the concentration of 10 ug/mL;+ indicates Less than 70% lysis of parasites
[14] = system: Leishmania donovani; assay: In vitro for leishmanicidal activity against Leishmania donovani (PP75) at the concentration of 10 ug/mL.
[15] = system: Leishmania braziliensis; assay: In vitro for leishmanicidal activity against Leishmania brasiliensis (2903) at the concentration of 100 ug/mL.
[16] = system: Leishmania braziliensis; assay: Tested in vitro for leishmanicidal activity against Leishmania brasiliensis (2903) at the concentration of 100 ug/mL; + indicates Less than 70% lysis of parasites

Row | SMILES | Activity [1] | Activity [2] | Activity [3] | Activity [4] | Activity [5] | Activity [6] | Activity [7] | Activity [8] | Activity [9] | Activity [10] | Activity [11] | Activity [12] | Activity [13] | Activity [14] | Activity [15] | Activity [16]
1 | CCCCCCCCCCCCCCC(CN)NC(=O)OC(C)(C)C (configuration not stated) | 80-90% lysis of parasites | 80-90% lysis of parasites | 80-90% lysis of parasites | 80-90% lysis of parasites | 80-90% lysis of parasites | 80-90% lysis of parasites | 80-90% lysis of parasites | 80-90% lysis of parasites | 80-90% lysis of parasites | 80-90% lysis of parasites | 80-90% lysis of parasites | 80-90% lysis of parasites | – | – | – | –
2 | CCCCCCCCCCCCCCC(COCc1ccccc1)NC(=O)CCCC(=O)O (configuration not stated) | 80-90% lysis of parasites | 80-90% lysis of parasites | 80-90% lysis of parasites | 80-90% lysis of parasites | 80-90% lysis of parasites | 80-90% lysis of parasites | 80-90% lysis of parasites | 80-90% lysis of parasites | 80-90% lysis of parasites | 80-90% lysis of parasites | 80-90% lysis of parasites | 80-90% lysis of parasites | – | – | – | –
3 | CCCCCCCCCCCCCCC(NC(=O)OC(C)(C)C)C(=O)O (configuration not stated) | 80-90% lysis of parasites | 80-90% lysis of parasites | 80-90% lysis of parasites | 80-90% lysis of parasites | 80-90% lysis of parasites | 80-90% lysis of parasites | 80-90% lysis of parasites | 80-90% lysis of parasites | 80-90% lysis of parasites | 80-90% lysis of parasites | 80-90% lysis of parasites | 80-90% lysis of parasites | – | – | – | –
4 | CCCCCCCCCCCCCCC(N)CN(CC)CC (configuration not stated) | – | – | – | – | + | – | + | + | – | + | – | Less than 70% lysis of parasites | Less than 70% lysis of parasites | Less than 70% lysis of parasites | + | –
5 | CCCCCCCCCCCCCCC(N)CO (configuration not stated) | 80-90% lysis of parasites | 80-90% lysis of parasites | 80-90% lysis of parasites | 80-90% lysis of parasites | 80-90% lysis of parasites | 80-90% lysis of parasites | 80-90% lysis of parasites | 80-90% lysis of parasites | 80-90% lysis of parasites | 80-90% lysis of parasites | 80-90% lysis of parasites | 80-90% lysis of parasites | – | – | – | –
6 | CCCCCCCCCCCCCCC(CO)NC(=O)OC(C)(C)C (configuration not stated) | 80-90% lysis of parasites | 80-90% lysis of parasites | 80-90% lysis of parasites | 80-90% lysis of parasites | 80-90% lysis of parasites | 80-90% lysis of parasites | 80-90% lysis of parasites | 80-90% lysis of parasites | 80-90% lysis of parasites | 80-90% lysis of parasites | 80-90% lysis of parasites | 80-90% lysis of parasites | – | – | – | –
7 | CCCCCCCCCCCCCCC(N)CN (configuration not stated) | 80-90% lysis of parasites | 80-90% lysis of parasites | 80-90% lysis of parasites | 80-90% lysis of parasites | 80-90% lysis of parasites | 80-90% lysis of parasites | 80-90% lysis of parasites | 80-90% lysis of parasites | 80-90% lysis of parasites | 80-90% lysis of parasites | 80-90% lysis of parasites | 80-90% lysis of parasites | – | – | – | –
8 | CCCCCCCCCCCCCCC(CO)NC(=O)CCCCCC (configuration not stated) | – | Less than 70% lysis of parasites | Less than 70% lysis of parasites | Less than 70% lysis of parasites | Less than 70% lysis of parasites | Less than 70% lysis of parasites | Less than 70% lysis of parasites | Less than 70% lysis of parasites | Less than 70% lysis of parasites | Less than 70% lysis of parasites | Less than 70% lysis of parasites | Less than 70% lysis of parasites | – | – | – | Less than 70% lysis of parasites
9 | CCCCCCCCCCCCCCC(COC(=O)CCCCCC)NC(=O)CCCCCC (configuration not stated) | 80-90% lysis of parasites | 80-90% lysis of parasites | 80-90% lysis of parasites | 80-90% lysis of parasites | 80-90% lysis of parasites | 80-90% lysis of parasites | 80-90% lysis of parasites | 80-90% lysis of parasites | 80-90% lysis of parasites | 80-90% lysis of parasites | 80-90% lysis of parasites | 80-90% lysis of parasites | – | – | – | –
10 | CCCCCCCCCCCCCCC(COCc1ccccc1)N(CC)CC (configuration not stated) | 80-90% lysis of parasites | 80-90% lysis of parasites | 80-90% lysis of parasites | 80-90% lysis of parasites | 80-90% lysis of parasites | 80-90% lysis of parasites | 80-90% lysis of parasites | 80-90% lysis of parasites | 80-90% lysis of parasites | 80-90% lysis of parasites | 80-90% lysis of parasites | 80-90% lysis of parasites | – | – | – | –
11 | CCCCCCCCCCCCCCC(COCc1ccccc1)NCC(=O)OCC (configuration not stated) | 80-90% lysis of parasites | 80-90% lysis of parasites | 80-90% lysis of parasites | 80-90% lysis of parasites | 80-90% lysis of parasites | 80-90% lysis of parasites | 80-90% lysis of parasites | 80-90% lysis of parasites | 80-90% lysis of parasites | 80-90% lysis of parasites | 80-90% lysis of parasites | 80-90% lysis of parasites | – | – | – | –
12 | C[C@@H]1[C@H](O)[C@@H](C)/C=C/C=C/C=C/C=C/C=C/C=C/C=C/[C@H](O[C@@H]2O[C@H](C)[C@@H](O)[C@H](N)[C@@H]2O)C[C@@H]2O[C@](O)(C[C@@H](O)C[C@@H](O)[C@H](O)CC[C@@H](O)C[C@@H](O)CC(=O)O[C@H]1C)C[C@H](O)[C@H]2C(=O)O | – | – | – | – | + | – | + | + | – | + | – | – | – | – | – | –
